The target of data set [1] is T1, aldose reductase (Rattus norvegicus, UniProt P07943).
T1 construct: Aldose reductase is purified from rat lenses; from tissue; host or cells: rat lens
Kind of data set: Aldose reductase inhibition (optical density at 340 nm, Kinoshita's method). Format: biochemical.
Experimental: Aldose reductase is purified from rat lenses according to the method of Hoyman et al. [J. Biol. Chem., 240, 877 (1965)]. Action of the compounds (I) of this invention is evaluated by measurement of optical density according to the J.H. Kinoshita's method [Invest.

Data set [2] in a line: Acute toxicity test. The conditions noted are these: mouse, in vivo, iv. As for the experimental part: The male ddy-std. strain mice (4 weeks of age, weighing 19-21g) were placed in a breeding room of constant temperature and humidity (23+1°C, 55+5%) and fed freely pellet diet (CE-2, Clea Japan, Inc.) and water ad. libitum for a week. The mice showing the normal growth were selected for the experiment.
Test compounds are dissolved in distilled water and administered (i.v.) in a dose of 0.5ml/20g body weight.

[3] abbreviates: aldose reductase purified from rat lenses, pH 6.2, DL glyceraldehyde, NADPH, read-out: IC50(M) Molar concentration of a compound producing 50% inhibition of aldose reductase.

Where two headings read alike, the source gives them in different places.

`O=C(O)CCCCCCCC(=O)N1C(c2cccc([N+](=O)[O-])c2)SC[C@H]1C(=O)O` (stereo partly drawn) [compound 22]: in data set [1] (setting [3]), the IC50 was found to be 8.2e-10 M.
`O=C(O)[C@@H]1CSC(c2cccc([N+](=O)[O-])c2)N1C(=O)CCCCCCCC(=O)N1C(c2cccc([N+](=O)[O-])c2)SC[C@H]1C(=O)O` (stereo partly drawn) [compound 47, (4R,4'R)-3,3'-(nonanedioyl)bis-[2-(3-nitrophenyl)-4-thiazolidinecarboxylic acid]] gave an IC50 in data set [1] of 1.6e-10 M. The 50% lethal dose (LD50) (usually the dose at which mortality reaches 50%) in data set [2] (male ddy-std. strain mice, dissolved in distilled water) was 1000 to 1500 mg/kg.
`N#Cc1cccc(C2SC[C@@H](C(=O)O)N2C(=O)CCCCCCCCC(=O)N2C(c3cccc(C#N)c3)SC[C@H]2C(=O)O)c1` (stereo partly drawn) [compound 56]: in data set [1] (setting [3]), the IC50 stood at 1.7e-09 M. This compound displayed an LD50 in data set [2] of 1000 to 1500 mg/kg.
With `O=C(O)[C@@H]1CSC(c2cccc([N+](=O)[O-])c2)N1C(=O)CCCCCCCCC(=O)N1C(c2cccc([N+](=O)[O-])c2)SC[C@H]1C(=O)O` (stereo partly drawn) [compound 57], the IC50 in data set [1] came out at 5.4e-09 M.

For the origin of these results see patent publication EP0031104A1, “Thiazolidine compounds, processes for their preparation and pharmaceutical compositions containing them” (SANTEN PHARMACEUTICAL CO., LTD., priority 1979, dated 1981).
